According to patent US20230087342A1, “AZEPANE DERIVATIVE” (Nippon Chemiphar Co., Ltd., priority 2019, published 2023):
pEC50: −log10 of the molar value.

The molecules below were run against T1, human κ opioid receptors (Homo sapiens, UniProt P41145) (assay: Opioid receptor function test (Lance Ultra cAMP kit, agonist activity)). Conditions: CHO cells expressing human κ opioid receptors, 10 μM forskolin, 30 minutes.
T1 construct: host or cells: CHO cells
Type: cell-based
Procedure, shortened: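 CHO cells expressing human κ opioid receptor incubated 30 min with test compound (10^−14 to 10^−7 M) and 10 μM forskolin in HSS/5 mM HEPES pH 7.4 with 0.5 mM IBMX and 0.1% SA. cAMP measured by TR-FRET (Lance Ultra) 1 h after detection reagent addition.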

T1 sequence (P41145 whole entry): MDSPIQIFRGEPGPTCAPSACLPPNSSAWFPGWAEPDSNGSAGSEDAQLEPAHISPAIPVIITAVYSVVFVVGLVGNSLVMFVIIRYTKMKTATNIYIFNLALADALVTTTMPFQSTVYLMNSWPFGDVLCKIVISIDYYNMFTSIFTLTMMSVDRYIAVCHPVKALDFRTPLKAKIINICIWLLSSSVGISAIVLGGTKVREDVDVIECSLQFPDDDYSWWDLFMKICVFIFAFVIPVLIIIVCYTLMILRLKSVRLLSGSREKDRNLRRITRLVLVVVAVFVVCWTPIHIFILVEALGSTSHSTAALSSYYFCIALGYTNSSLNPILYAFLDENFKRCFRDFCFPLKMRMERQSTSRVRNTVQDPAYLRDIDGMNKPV

Row | Compound | pEC50
1 | Cc1cnn(C[C@@H](CO)N2CC[C@]34CCN(CC5CC5)[C@H](Cc5ccc(O)cc53)[C@]4(O)CC2)c1 [Example 234, (5aS,6R,11bS)-14-(cyclopropylmethyl)-3-((S)-1-hydroxy-3-(4-methyl-1H-pyrazol-1-yl)propan-2-yl)-2,3,4,5,6,7-hexahydro-6,11b-(epiminoethano)naphtho[1,2-d]azepine-5a,10(1H)-diol] | 10.06
2 | Cc1cnn([C@H]2CC[C@@H](N3CC[C@]45CCN(CC6CC6)[C@H](Cc6ccc(O)cc64)[C@]5(O)CC3)C2)c1 [Example 236, (5aS,6R,11bS)-14-(cyclopropylmethyl)-3-((1R,3S)-3-(4-methyl-1H-pyrazol-1-yl)cyclopentyl)-2,3,4,5,6,7-hexahydro-6,11b-(epiminoethano)naphtho[1,2-d]azepine-5a,10(1H)-diol] | 10.92
3 | Cc1cnn(CCN2CC[C@]34CCN(CC5CC5)[C@H](Cc5ccc(OC(=O)C(C)(C)C)cc53)[C@]4(O)CC2)c1 [Example 238, (5aS,6R,11bS)-14-(cyclopropylmethyl)-5a-hydroxy-3-(2-(4-methyl-1H-pyrazol-1-yl)ethyl)-1,2,3,4,5,5a,6,7-octahydro-6,11b-(epiminoethano)naphtho[1,2-d]azepin-10-yl pivalate] | 9.35
4 | Cc1cnn(CCN2CC[C@]34CCN(CC5CC5)[C@H](Cc5ccc(O[C@@H]6O[C@H](C(=O)O)[C@@H](O)C(O)[C@H]6O)cc53)[C@]4(O)CC2)c1 (stereo partly drawn) [Example 246, (2S,3S,5R,6S)-6-(((5aS,6R,11bS)-14-(cyclopropylmethyl)-5a-hydroxy-3-(2-(4-methyl-1H-pyrazol-1-yl)ethyl)-1,2,3,4,5,5a,6,7-octahydro-6,11b-(epiminoethano)naphtho[1,2-d]azepin-10-yl)oxy)-3,4,5-trihydroxytetrahydro-2H-pyran-2-carboxylic acid] | 8.59
5 | NC(=O)c1ccc2c(c1)[C@@]13CCN(C(=O)CCn4cc(C(F)(F)F)cn4)CC[C@@]1(O)[C@@H](C2)N(CC1CC1)CC3 [Example 264, (5aS,6R,11bR)-14-(cyclopropylmethyl)-5a-hydroxy-3-(3-(4-(trifluoromethyl)-1H-pyrazol-1-yl)propanoyl)-1,2,3,4,5,5a,6,7-octahydro-6,11b-(epiminoethano)naphtho[1,2-d]azepine-10-carboxamide] | 9.54
6 | NC(=O)c1ccc2c(c1)[C@@]13CCN(C(=O)Cc4n[nH]c5ccccc45)CC[C@@]1(O)[C@@H](C2)N(CC1CC1)CC3 [Example 265, (5aS,6R,11bR)-3-(2-(1H-indazol-3-yl)acetyl)-14-(cyclopropylmethyl)-5a-hydroxy-1,2,3,4,5,5a,6,7-octahydro-6,11b-(epiminoethano)naphtho[1,2-d]azepine-10-carboxamide] | 9.92
7 | Cc1cnn(CCN2CC[C@]34CCN(CC5CC5)[C@H](Cc5ccc(O)cc53)[C@]4(O)CC2(C)C)c1 [Example 270, (5aS,6R,11bR)-14-(cyclopropylmethyl)-4,4-dimethyl-3-(2-(4-methyl-1H-pyrazol-1-yl)ethyl)-2,3,4,5,6,7-hexahydro-6,11b-(epiminoethano)naphtho[1,2-d]azepine-5a,10(1H)-diol] | 10.28
8 | Cc1cnn(CCN2CC[C@]34CCN(CC5CC5)[C@H](Cc5ccc(O)cc53)[C@]4(O)CC2C)c1 (stereo partly drawn) [Example 274, (5aS,6R,11bS)-14-(cyclopropylmethyl)-4-methyl-3-(2-(4-methyl-1H-pyrazol-1-yl)ethyl)-2,3,4,5,6,7-hexahydro-6,11b-(epiminoethano)naphtho[1,2-d]azepine-5a,10(1H)-diol] | 10.15
9 | Cc1cc2c(cc1O)[C@@]13CCN(C(=O)Cc4cn5ccccc5n4)CC[C@@]1(O)[C@@H](C2)N(CC1CC1)CC3 [Example 314, 1-((5aS,6R,11bR)-14-(cyclopropylmethyl)-5a,10-dihydroxy-9-methyl-1,2,5,5a,6,7-hexahydro-6,11b-(epiminoethano)naphtho[1,2-d]azepin-3(4H)-yl)-2-(imidazo[1,2-a]pyridin-2-yl)ethan-1-one] | 9.57
10 | Cc1cc(CC(=O)N2CC[C@]34CCN(CC5CC5)[C@H](Cc5cc(C)c(O)cc53)[C@]4(O)CC2)ns1 [Example 323, 1-((5aS,6R,11bR)-14-(cyclopropylmethyl)-5a,10-dihydroxy-9-methyl-1,2,5,5a,6,7-hexahydro-6,11b-(epiminoethano)naphtho[1,2-d]azepin-3(4H)-yl)-2-(5-methylisothiazol-3-yl)ethan-1-one] | 9.74
11 | Cc1cnn(CC(=O)N2CC[C@]34CCN(CC5CC5)[C@H](Cc5cc(C)c(O)cc53)[C@]4(O)CC2)c1 [Example 328, 1-((5aS,6R,11bR)-14-(cyclopropylmethyl)-5a,10-dihydroxy-9-methyl-1,2,5,5a,6,7-hexahydro-6,11b-(epiminoethano)naphtho[1,2-d]azepin-3(4H)-yl)-2-(4-methyl-1H-pyrazol-1-yl)ethan-1-one] | 9.48
12 | Cc1cc2c(cc1O)[C@@]13CCN(C(=O)Cn4cc(C(F)(F)F)cn4)CC[C@@]1(O)[C@@H](C2)N(CC1CC1)CC3 [Example 329, 1-((5aS,6R,11bR)-14-(cyclopropylmethyl)-5a,10-dihydroxy-9-methyl-1,2,5,5a,6,7-hexahydro-6,11b-(epiminoethano)naphtho[1,2-d]azepin-3(4H)-yl)-2-(4-(trifluoromethyl)-1H-pyrazol-1-yl)ethan-1-one] | 10.08
13 | Cc1cc2c(cc1O)[C@@]13CCN(C(=O)CN4CC[C@@H](C)C4)CC[C@@]1(O)[C@@H](C2)N(CC1CC1)CC3 [Example 336, 1-((5aS,6R,11bR)-14-(cyclopropylmethyl)-5a,10-dihydroxy-9-methyl-1,2,5,5a,6,7-hexahydro-6,11b-(epiminoethano)naphtho[1,2-d]azepin-3(4H)-yl)-2-((R)-3-methylpyrrolidin-1-yl)ethan-1-one] | 9.74
14 | CC1(C)C[C@@]2(O)[C@H]3Cc4ccc(O)cc4[C@@]2(CCN3CC2CC2)CCN1C(=O)Cc1ccccn1 [Example 343, 1-((5aS,6R,11bR)-14-(cyclopropylmethyl)-5a,10-dihydroxy-4,4-dimethyl-1,2,5,5a,6,7-hexahydro-6,11b-(epiminoethano)naphtho[1,2-d]azepin-3(4H)-yl)-2-(pyridin-2-yl)ethan-1-one] | 9.25
15 | CCC1C[C@@]2(O)[C@H]3Cc4ccc(O)cc4[C@]2(CCN1C(=O)Cc1ccccn1)CCN3CC1CC1 (stereo partly drawn) [Example 347, 1-((5aS,6R,11bR)-14-(cyclopropylmethyl)-4-ethyl-5a,10-dihydroxy-1,2,5,5a,6,7-hexahydro-6,11b-(epiminoethano)naphtho[1,2-d]azepin-3(4H)-yl)-2-(pyridin-2-yl)ethan-1-one] | 9.92
16 | Cc1cc2c(cc1O)[C@@]13CCN(C(=O)Cc4cc(C(F)(F)F)ccn4)CC[C@@]1(O)[C@@H](C2)N(CC1CC1)CC3 [Example 355, 1-((5aS,6R,11bR)-14-(cyclopropylmethyl)-5a,10-dihydroxy-9-methyl-1,2,5,5a,6,7-hexahydro-6,11b-(epiminoethano)naphtho[1,2-d]azepin-3(4H)-yl)-2-(4-(trifluoromethyl)pyridin-2-yl)ethan-1-one] | 9.96
17 | Cc1cc2c(cc1O)[C@@]13CCN(C(=O)Cc4n[nH]c5ccccc45)CC[C@@]1(O)[C@@H](C2)N(CC1CC1)CC3 [Example 357, 1-((5aS,6R,11bR)-14-(cyclopropylmethyl)-5a,10-dihydroxy-9-methyl-1,2,5,5a,6,7-hexahydro-6,11b-(epiminoethano)naphtho[1,2-d]azepin-3(4H)-yl)-2-(1H-indazol-3-yl)ethan-1-one] | 10.21
